From ChEMBL document CHEMBL1201862, “PubChem BioAssay data set” (2004)
Active and inactive are the calls of the source.

Assays:
[1] = molecular target: T1, Histone-lysine N-methyltransferase NSD2 (Homo sapiens, UniProt O96028); type: biochemical
T1 sequence (O96028 whole entry): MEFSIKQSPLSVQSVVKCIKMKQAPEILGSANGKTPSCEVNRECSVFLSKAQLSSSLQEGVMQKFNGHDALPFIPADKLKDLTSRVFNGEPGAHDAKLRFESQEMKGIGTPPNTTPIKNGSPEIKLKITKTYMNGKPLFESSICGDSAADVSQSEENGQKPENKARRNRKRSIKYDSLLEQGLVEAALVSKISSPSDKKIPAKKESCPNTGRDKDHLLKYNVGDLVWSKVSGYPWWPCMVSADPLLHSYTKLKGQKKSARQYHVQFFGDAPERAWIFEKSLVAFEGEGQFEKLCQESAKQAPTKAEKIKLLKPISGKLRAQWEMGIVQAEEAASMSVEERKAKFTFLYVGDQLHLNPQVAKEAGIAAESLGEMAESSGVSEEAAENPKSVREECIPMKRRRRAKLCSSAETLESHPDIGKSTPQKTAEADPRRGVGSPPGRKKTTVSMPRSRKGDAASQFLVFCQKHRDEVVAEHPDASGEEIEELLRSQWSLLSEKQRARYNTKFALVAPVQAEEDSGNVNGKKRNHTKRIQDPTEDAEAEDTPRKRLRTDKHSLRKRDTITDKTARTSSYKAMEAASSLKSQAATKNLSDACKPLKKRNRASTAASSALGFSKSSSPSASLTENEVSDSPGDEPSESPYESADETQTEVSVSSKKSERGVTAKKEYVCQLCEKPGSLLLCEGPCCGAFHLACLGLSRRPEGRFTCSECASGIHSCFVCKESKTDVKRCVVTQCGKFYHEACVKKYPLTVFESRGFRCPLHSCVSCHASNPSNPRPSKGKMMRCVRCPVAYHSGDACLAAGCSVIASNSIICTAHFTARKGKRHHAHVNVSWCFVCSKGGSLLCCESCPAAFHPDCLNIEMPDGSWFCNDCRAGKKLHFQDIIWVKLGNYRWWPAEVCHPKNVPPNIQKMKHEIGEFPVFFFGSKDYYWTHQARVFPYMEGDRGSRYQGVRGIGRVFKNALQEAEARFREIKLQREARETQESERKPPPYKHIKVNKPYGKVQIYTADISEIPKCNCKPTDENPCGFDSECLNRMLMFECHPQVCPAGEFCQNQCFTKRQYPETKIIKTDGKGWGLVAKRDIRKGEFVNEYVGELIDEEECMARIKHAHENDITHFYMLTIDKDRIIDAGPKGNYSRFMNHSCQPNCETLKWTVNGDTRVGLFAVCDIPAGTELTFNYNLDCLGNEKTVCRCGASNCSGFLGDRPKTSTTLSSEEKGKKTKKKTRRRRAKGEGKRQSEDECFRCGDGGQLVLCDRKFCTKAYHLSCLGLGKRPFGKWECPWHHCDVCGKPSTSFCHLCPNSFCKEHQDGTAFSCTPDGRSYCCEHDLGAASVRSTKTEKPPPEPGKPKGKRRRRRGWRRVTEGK

Caspase-3 = molecular target: T2, Caspase-3 (Homo sapiens, UniProt P42574); type: functional;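 note: Dose-response selectivity test against caspase-3 for candidate inhibitors of sentrin-specific proteases (SENPs)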
T2 sequence (P42574 whole entry): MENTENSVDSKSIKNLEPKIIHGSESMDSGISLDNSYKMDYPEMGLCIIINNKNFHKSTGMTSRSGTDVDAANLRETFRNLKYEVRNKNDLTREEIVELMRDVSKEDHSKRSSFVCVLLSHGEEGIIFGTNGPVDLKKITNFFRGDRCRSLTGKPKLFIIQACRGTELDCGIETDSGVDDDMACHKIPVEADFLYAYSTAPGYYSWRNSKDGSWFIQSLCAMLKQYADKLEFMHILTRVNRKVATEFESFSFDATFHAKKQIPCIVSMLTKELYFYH

[2] = growth suppression of PTEN-null colon cells, dose response, cell-based, HCT116 PTEN knockout (AID 1047); type: functional;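 note: HCT116 colon tumor cells with PTEN knocked out; cells exposed to compound for 60 hours before readout; potency for loss of cell viability measured by luminescence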
[3] = molecular target: BDNF/NT-3 growth factors receptor (Homo sapiens, UniProt Q16620); type: functional;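 note: NTRK2 measured as one member of a broad kinome-wide kinase profiling panel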
[4] = molecular target: cAMP-dependent protein kinase catalytic subunit alpha (Homo sapiens, UniProt P17612); type: functional
[5] = molecular target: Serine/threonine-protein kinase PLK1 (Homo sapiens, UniProt P53350); type: functional;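 note: PLK1 measured as one member of a kinome-wide profiling panel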
[6] = molecular target: Macrophage colony-stimulating factor 1 receptor (Homo sapiens, UniProt P07333); type: functional;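 note: value comes from the Navigating the Kinome screening panel, CSF1R member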
[7] = molecular target: Death-associated protein kinase 3 (Homo sapiens, UniProt O43293); type: functional;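 note: measured as one member of a kinome-wide profiling panel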
[8] = molecular target: Fibroblast growth factor receptor 3 (Homo sapiens, UniProt P22607); type: functional
[9] = molecular target: Tyrosine-protein kinase JAK2 (Homo sapiens, UniProt O60674); type: functional;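 note: JAK2 tested as one member of a kinase panel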
[10] = molecular target: Tyrosine-protein kinase Lck (Homo sapiens, UniProt P06239); type: functional;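 note: lck was assayed as one member of a kinase panel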
[11] = molecular target: MAP kinase-activated protein kinase 2 (Homo sapiens, UniProt P49137); type: functional;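 note: measured as one member of a kinome-wide kinase panel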
[12] = molecular target: Protein kinase C delta type (Homo sapiens, UniProt Q05655); type: functional
[13] = molecular target: Casein kinase II subunit alpha (Homo sapiens, UniProt P68400); type: functional
[14] = molecular target: Glycogen synthase kinase-3 beta (Homo sapiens, UniProt P49841); type: functional;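 note: value comes from a broad kinome profiling panel, with GSK3B as the panel member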
[15] = molecular target: Small ubiquitin-related modifier 1 (Homo sapiens, UniProt P63165); experiment: inhibitors of SUMO1 peptide binding, dose response, biochemical, fluorescence polarization, uHTS hits (AID 624382); type: functional; conditions: read-out: IC50_Mean
[16] = mammalian cell cytotoxicity, dose response, cytotoxicity control, plate reader, cherry-pick samples (AID 504397); type: functional, cell-based
[17] = cytotoxicity toward DRD oncogenic fibroblasts, dose response, cell-based, non-viral oncogenic, luminescence (AID 1934); type: functional; conditions: Homo sapiens
[18] = inhibition of K1F phage lysis, E. coli UTI89, bacterial capsule biogenesis inhibitors, alamar blue (AID 488966); type: functional
Bcl-2-related protein A1 = molecular target: T3, Bcl-2-related protein A1 (Mus musculus, UniProt Q07440); type: functional;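 note: confirmatory dose–response counterscreen on Bfl-1, used to check hits from a UBC13 polyubiquitin inhibitor campaign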
T3 sequence (Q07440 whole entry): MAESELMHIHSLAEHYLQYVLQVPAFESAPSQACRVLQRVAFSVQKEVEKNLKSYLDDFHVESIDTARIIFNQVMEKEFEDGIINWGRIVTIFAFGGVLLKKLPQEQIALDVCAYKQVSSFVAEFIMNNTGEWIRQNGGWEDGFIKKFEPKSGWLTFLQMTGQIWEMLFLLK

BJ [19] = experiment: cytotoxicity toward Ras-transformed BJeLR fibroblasts, dose response, cell-based, alamar blue fluorescence, cherrypicked samples (AID 2631); type: functional; conditions: Homo sapiens;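 note: confirmatory dose-response assay in RAS-dependent BJ fibroblasts engineered with TERT, LT and ST, with cytotoxicity read by fluorescence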
BJ [20] = experiment: cells; type: functional, cell-based; conditions: Homo sapiens
[21] = inhibitors of PGC1a acetylation in cells, dose response, cell-based, cherry-picked samples (AID 720514); type: functional;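 note: potency may reflect raised or lowered acetylation signal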

Small ubiquitin-related modifier 1, sequence (P63165 whole entry): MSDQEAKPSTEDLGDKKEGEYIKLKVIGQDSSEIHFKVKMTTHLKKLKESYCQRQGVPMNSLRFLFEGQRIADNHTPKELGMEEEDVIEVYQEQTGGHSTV
Serine/threonine-protein kinase PLK1, sequence (P53350 whole entry): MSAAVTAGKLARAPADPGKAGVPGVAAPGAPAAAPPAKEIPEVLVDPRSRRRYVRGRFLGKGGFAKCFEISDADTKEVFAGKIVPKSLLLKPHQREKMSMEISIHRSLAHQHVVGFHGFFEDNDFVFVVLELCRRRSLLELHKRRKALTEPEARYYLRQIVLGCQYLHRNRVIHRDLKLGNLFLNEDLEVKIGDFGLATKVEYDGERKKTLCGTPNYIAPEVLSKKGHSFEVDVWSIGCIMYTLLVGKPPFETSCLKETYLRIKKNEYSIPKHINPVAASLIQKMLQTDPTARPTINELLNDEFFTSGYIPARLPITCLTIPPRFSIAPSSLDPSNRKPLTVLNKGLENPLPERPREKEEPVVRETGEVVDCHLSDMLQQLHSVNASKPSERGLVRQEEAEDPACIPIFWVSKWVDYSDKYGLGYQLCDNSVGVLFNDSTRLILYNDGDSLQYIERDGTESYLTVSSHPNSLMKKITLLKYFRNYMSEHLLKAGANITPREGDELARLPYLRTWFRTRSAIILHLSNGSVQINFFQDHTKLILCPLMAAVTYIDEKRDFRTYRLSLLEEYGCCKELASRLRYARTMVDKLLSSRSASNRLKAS
Fibroblast growth factor receptor 3, sequence (P22607 whole entry): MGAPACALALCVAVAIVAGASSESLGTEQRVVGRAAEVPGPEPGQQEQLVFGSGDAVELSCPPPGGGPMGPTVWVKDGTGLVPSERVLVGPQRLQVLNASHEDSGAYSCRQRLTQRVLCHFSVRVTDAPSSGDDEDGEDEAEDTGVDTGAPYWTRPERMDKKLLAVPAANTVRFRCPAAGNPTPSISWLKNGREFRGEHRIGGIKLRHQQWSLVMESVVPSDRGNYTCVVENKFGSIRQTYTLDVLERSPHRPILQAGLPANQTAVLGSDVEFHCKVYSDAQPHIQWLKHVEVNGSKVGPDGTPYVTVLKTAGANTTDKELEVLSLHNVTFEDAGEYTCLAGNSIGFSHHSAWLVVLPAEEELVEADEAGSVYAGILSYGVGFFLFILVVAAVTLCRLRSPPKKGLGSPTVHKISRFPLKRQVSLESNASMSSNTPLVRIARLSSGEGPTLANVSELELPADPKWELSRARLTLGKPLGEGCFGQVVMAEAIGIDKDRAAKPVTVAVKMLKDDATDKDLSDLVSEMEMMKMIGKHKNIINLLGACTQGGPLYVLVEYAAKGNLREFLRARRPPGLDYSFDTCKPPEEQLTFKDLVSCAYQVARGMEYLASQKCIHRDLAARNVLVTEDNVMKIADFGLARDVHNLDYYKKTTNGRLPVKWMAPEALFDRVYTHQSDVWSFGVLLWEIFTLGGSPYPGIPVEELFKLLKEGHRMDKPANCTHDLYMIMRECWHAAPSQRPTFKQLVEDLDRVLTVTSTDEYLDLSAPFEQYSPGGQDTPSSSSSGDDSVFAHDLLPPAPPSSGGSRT
Protein kinase C delta type, sequence (Q05655 whole entry): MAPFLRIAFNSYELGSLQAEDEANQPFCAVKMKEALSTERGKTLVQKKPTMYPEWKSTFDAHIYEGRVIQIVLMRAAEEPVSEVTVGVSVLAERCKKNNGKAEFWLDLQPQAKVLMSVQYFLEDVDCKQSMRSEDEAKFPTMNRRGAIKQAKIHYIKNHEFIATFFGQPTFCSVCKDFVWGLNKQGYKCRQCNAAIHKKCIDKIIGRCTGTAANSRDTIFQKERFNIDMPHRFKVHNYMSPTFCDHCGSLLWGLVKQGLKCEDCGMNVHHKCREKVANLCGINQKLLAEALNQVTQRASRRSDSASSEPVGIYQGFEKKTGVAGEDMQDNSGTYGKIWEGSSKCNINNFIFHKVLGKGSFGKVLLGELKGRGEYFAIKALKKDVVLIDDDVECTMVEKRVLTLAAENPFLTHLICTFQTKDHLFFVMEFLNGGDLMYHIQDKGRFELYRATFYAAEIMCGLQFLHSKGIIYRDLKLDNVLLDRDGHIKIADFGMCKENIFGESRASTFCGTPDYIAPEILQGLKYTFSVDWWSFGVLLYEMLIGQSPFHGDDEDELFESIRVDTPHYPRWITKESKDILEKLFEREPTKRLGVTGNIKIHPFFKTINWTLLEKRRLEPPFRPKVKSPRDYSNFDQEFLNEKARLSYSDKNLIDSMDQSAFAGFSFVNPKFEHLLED
Macrophage colony-stimulating factor 1 receptor, sequence (P07333 whole entry): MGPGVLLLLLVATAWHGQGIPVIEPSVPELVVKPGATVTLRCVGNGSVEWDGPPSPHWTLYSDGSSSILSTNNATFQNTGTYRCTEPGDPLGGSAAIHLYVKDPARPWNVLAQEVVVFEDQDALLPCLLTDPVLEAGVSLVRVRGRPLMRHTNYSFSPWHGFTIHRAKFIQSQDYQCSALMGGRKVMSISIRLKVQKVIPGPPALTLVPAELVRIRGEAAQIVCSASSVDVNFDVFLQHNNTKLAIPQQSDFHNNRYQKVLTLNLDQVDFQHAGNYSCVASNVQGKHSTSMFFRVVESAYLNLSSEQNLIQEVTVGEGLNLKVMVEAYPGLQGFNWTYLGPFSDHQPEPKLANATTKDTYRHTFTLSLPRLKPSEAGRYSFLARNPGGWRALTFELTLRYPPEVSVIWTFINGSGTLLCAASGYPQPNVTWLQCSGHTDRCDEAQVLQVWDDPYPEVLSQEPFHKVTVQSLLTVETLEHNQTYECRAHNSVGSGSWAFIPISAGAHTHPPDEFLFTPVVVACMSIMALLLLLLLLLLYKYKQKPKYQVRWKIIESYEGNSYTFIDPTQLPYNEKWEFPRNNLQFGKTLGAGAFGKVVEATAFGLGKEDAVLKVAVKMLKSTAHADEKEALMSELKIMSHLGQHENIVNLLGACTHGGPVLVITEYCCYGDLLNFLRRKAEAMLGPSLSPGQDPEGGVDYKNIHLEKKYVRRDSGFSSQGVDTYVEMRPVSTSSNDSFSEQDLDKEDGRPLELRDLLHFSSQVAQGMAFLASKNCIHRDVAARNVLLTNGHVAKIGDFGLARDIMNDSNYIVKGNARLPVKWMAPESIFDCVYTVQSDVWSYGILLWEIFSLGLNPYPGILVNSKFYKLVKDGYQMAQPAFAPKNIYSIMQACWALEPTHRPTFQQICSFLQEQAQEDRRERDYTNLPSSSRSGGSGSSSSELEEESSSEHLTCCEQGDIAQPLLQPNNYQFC
Tyrosine-protein kinase Lck, sequence (P06239 whole entry): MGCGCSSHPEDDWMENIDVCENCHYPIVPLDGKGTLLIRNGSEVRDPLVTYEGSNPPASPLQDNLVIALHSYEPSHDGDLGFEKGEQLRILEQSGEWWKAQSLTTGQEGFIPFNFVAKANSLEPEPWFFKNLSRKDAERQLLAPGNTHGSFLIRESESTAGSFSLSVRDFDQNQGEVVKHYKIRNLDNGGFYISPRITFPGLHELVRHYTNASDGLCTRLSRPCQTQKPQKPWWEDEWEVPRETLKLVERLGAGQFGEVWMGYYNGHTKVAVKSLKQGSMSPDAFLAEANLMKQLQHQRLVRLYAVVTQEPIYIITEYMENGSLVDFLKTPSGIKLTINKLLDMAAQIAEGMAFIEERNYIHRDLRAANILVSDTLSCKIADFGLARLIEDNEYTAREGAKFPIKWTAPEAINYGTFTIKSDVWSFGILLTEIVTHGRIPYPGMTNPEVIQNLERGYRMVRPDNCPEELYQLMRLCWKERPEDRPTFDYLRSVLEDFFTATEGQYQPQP
BDNF/NT-3 growth factors receptor, sequence (Q16620 whole entry): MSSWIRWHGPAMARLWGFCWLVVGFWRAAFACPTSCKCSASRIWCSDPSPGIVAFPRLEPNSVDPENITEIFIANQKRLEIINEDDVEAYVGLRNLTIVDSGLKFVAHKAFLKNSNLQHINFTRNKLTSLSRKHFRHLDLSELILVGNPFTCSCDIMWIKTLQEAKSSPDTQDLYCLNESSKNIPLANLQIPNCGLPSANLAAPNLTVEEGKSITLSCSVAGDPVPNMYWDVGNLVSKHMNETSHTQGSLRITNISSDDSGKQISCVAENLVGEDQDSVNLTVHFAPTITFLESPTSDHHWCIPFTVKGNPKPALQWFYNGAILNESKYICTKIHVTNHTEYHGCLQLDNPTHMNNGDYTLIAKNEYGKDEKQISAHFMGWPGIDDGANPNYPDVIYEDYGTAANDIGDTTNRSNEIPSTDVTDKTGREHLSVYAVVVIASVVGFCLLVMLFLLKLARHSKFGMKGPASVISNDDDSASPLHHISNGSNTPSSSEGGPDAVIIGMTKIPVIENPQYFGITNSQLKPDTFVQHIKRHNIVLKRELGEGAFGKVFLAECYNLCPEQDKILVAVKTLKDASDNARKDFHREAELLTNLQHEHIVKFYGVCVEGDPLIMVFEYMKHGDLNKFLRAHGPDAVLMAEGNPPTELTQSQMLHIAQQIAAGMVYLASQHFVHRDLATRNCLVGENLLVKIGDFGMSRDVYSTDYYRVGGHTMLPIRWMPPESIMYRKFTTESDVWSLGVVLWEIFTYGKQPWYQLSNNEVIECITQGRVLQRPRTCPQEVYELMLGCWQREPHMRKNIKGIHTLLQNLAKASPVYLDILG
Death-associated protein kinase 3, sequence (O43293 whole entry): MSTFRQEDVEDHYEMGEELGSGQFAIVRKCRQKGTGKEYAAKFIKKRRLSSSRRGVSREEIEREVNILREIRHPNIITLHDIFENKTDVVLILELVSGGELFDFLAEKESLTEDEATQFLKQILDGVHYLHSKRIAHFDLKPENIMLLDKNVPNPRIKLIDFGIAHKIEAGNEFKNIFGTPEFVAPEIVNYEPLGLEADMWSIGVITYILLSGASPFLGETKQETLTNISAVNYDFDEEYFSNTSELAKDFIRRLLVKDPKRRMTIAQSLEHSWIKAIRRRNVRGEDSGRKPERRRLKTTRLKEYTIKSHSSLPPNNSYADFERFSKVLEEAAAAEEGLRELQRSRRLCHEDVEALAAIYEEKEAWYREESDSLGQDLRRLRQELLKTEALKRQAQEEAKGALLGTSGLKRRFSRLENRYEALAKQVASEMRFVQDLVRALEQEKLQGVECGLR

CCC(C)NC(=O)c1c(N)n(CCCOC)c2nc3ccccc3nc12 (stereo not drawn)
AC50 [1]: 4.25 µM (active)
IC50 (Caspase-3): 6.15 µM (active)
EC50 [2]: 33.2 µM (active)

CC(=NNC(=N)N)c1cc(NC(=O)NCCCCCCNC(=O)Nc2cc(C(C)=NNC(=N)N)cc(C(C)=NNC(=N)N)c2)cc(C(C)=NNC(=N)N)c1
Ki [3]: > 5.01 µM (inactive)
Ki [4]: > 7.94 µM (inactive)
Ki [5]: > 7.94 µM (inactive)
Ki [6]: > 2.51 µM (inactive)
Ki [7]: 0.158 µM (active)
Ki [8]: > 2 µM (inactive)
Ki [9]: 1 µM (active)
Ki [10]: > 2.51 µM (inactive)
Ki [11]: 0.631 µM (active)
Ki [12]: 0.316 µM (active)
Ki [13]: > 6.31 µM (inactive)
Ki [14]: > 6.31 µM (inactive)

Cc1cc(N)c2cc(NC(=O)/C=C/c3ccccc3Cl)ccc2n1
IC50 [15]: > 66.6 µM (inactive)
AC50 [16]: 4.26 µM (active)
EC50 [17]: 2.88 µM (active)
IC50 [18]: > 75 µM (active)
IC50 (Bcl-2-related protein A1): 18.2 µM (active)
EC50 (BJ [19]): 0.704 µM (inconclusive)
EC50 (BJ [20]): 4.79 µM (inconclusive)
AC50 [21]: 1.97 µM (active)
